Data: PMC8744458 (Beilstein Journal of Organic Chemistry, 2022)
“Also recorded” adds a separate entry of the source. One block for each molecule: values may come before it. No end group written: not given here.

Columns and labels:
[1] = on-resin intramolecular Suzuki-Miyaura biaryl stapling (i,i+4) between 6- or 7-bromo-Trp and aryl boronic acid/Bpin side chain; Pd2(dba)3 0.2 eq, sSPhos 0.4 eq, KF 4 eq, microwave 120 C 30 min; then TFA/TIS/H2O cleavage; settings: the molecule shown is the open-chain precursor, DME/EtOH/H2O 9:9:2, 16.7 mM, 0.5 h
[2] = not given; remark: listed apart in the source
[3] = not given; remark: listed apart in the source
Proteinase K = Proteinase K (2.5 µg mL−1) in Na2HPO4 buffer (100 mM, pH 7.4); settings: 25 °C, up to 120 min
β-catenin = molecular target: T1, β-catenin (Homo sapiens, UniProt P35222); assay: direct fluorescence polarisation
T1 chain: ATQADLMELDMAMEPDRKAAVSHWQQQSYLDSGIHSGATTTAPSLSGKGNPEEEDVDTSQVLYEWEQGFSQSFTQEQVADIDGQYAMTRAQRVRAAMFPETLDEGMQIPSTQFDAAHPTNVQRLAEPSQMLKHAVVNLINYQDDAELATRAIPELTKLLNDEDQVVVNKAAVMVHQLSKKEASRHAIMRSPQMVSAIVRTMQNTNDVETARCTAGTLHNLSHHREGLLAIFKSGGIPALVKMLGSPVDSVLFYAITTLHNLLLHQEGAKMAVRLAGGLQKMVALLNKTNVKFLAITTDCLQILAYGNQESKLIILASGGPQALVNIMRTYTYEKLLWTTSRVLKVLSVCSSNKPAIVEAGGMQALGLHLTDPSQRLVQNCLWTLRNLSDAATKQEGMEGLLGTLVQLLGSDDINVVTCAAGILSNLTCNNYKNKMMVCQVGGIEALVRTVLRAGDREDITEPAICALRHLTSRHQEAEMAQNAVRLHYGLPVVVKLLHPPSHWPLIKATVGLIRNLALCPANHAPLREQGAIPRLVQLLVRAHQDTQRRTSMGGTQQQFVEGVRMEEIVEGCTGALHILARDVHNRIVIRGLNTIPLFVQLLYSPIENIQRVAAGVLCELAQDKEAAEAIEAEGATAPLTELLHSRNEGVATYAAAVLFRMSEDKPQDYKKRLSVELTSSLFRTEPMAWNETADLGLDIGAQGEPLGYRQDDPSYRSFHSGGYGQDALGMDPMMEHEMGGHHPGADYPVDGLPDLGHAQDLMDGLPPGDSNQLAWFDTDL

Molecule: CC[C@H](C)[C@H](NC(=O)[C@H](Cc1c[nH]c2c(Br)cccc12)NC(=O)[C@H](CCC(=O)OC(C)(C)C)NC(=O)[C@@H]1CCCN1C(=O)[C@H](CC(=O)NC(c1ccccc1)(c1ccccc1)c1ccccc1)NC(=O)[C@H](CCC(=O)OC(C)(C)C)NC(C)=O)C(=O)N[C@@H](CC(C)C)C(=O)N[C@@H](CC(=O)OC(C)(C)C)C(=O)N[C@@H](CCCCNC(=O)CCc1ccc(B(O)O)cc1)C(=O)N[C@@H](Cc1cn(C(c2ccccc2)(c2ccccc2)c2ccccc2)cn1)C(=O)N[C@H](C(=O)N[C@@H](CCC(=O)NC(c1ccccc1)(c1ccccc1)c1ccccc1)C(=O)N[C@@H](CCCNC(=N)NS(=O)(=O)c1c(C)c(C)c2c(c1C)CC(C)(C)O2)C(=O)N[C@H](C(=O)N[C@@H](CCSC)C(N)=O)C(C)C)C(C)C
ring closure, overall yield ([1]; 30-membered ring): 14%

Molecule: CC[C@H](C)[C@H](NC(=O)[C@H](Cc1c[nH]c2c(Br)cccc12)NC(=O)[C@H](CCC(=O)OC(C)(C)C)NC(=O)[C@@H]1CCCN1C(=O)[C@H](CC(=O)NC(c1ccccc1)(c1ccccc1)c1ccccc1)NC(=O)[C@H](CCC(=O)OC(C)(C)C)NC(C)=O)C(=O)N[C@@H](CC(C)C)C(=O)N[C@@H](CC(=O)OC(C)(C)C)C(=O)N[C@@H](CCCCNC(=O)c1ccc(B(O)O)cc1)C(=O)N[C@@H](Cc1cn(C(c2ccccc2)(c2ccccc2)c2ccccc2)cn1)C(=O)N[C@H](C(=O)N[C@@H](CCC(=O)NC(c1ccccc1)(c1ccccc1)c1ccccc1)C(=O)N[C@@H](CCCNC(=N)NS(=O)(=O)c1c(C)c(C)c2c(c1C)CC(C)(C)O2)C(=O)N[C@H](C(=O)N[C@@H](CCSC)C(N)=O)C(C)C)C(C)C
ring closure, overall yield ([1]; 28-membered ring): 11%

Molecule: CC[C@H](C)[C@H](NC(=O)[C@H](Cc1c[nH]c2c(Br)cccc12)NC(=O)[C@H](CCC(=O)OC(C)(C)C)NC(=O)[C@@H]1CCCN1C(=O)[C@H](CC(=O)NC(c1ccccc1)(c1ccccc1)c1ccccc1)NC(=O)[C@H](CCC(=O)OC(C)(C)C)NC(C)=O)C(=O)N[C@@H](CC(C)C)C(=O)N[C@@H](CC(=O)OC(C)(C)C)C(=O)N[C@@H](CCCNC(=O)c1ccc(B(O)O)cc1)C(=O)N[C@@H](Cc1cn(C(c2ccccc2)(c2ccccc2)c2ccccc2)cn1)C(=O)N[C@H](C(=O)N[C@@H](CCC(=O)NC(c1ccccc1)(c1ccccc1)c1ccccc1)C(=O)N[C@@H](CCCNC(=N)NS(=O)(=O)c1c(C)c(C)c2c(c1C)CC(C)(C)O2)C(=O)N[C@H](C(=O)N[C@@H](CCSC)C(N)=O)C(C)C)C(C)C
ring closure, overall yield ([1]; 27-membered ring): 8%

Molecule: CC[C@H](C)[C@H](NC(=O)[C@H](Cc1c[nH]c2c(Br)cccc12)NC(=O)[C@H](CCC(=O)OC(C)(C)C)NC(=O)[C@@H]1CCCN1C(=O)[C@H](CC(=O)NC(c1ccccc1)(c1ccccc1)c1ccccc1)NC(=O)[C@H](CCC(=O)OC(C)(C)C)NC(C)=O)C(=O)N[C@@H](CC(C)C)C(=O)N[C@@H](CC(=O)OC(C)(C)C)C(=O)N[C@@H](CCNC(=O)c1ccc(B(O)O)cc1)C(=O)N[C@@H](Cc1cn(C(c2ccccc2)(c2ccccc2)c2ccccc2)cn1)C(=O)N[C@H](C(=O)N[C@@H](CCC(=O)NC(c1ccccc1)(c1ccccc1)c1ccccc1)C(=O)N[C@@H](CCCNC(=N)NS(=O)(=O)c1c(C)c(C)c2c(c1C)CC(C)(C)O2)C(=O)N[C@H](C(=O)N[C@@H](CCSC)C(N)=O)C(C)C)C(C)C
ring closure, overall yield ([1]; 26-membered ring): 9%

Molecule: CC[C@H](C)[C@H](NC(=O)[C@H](Cc1c[nH]c2c(Br)cccc12)NC(=O)[C@H](CCC(=O)OC(C)(C)C)NC(=O)[C@@H]1CCCN1C(=O)[C@H](CC(=O)NC(c1ccccc1)(c1ccccc1)c1ccccc1)NC(=O)[C@H](CCC(=O)OC(C)(C)C)NC(C)=O)C(=O)N[C@@H](CC(C)C)C(=O)N[C@@H](CC(=O)OC(C)(C)C)C(=O)N[C@@H](Cc1ccc(B2OC(C)(C)C(C)(C)O2)cc1)C(=O)N[C@@H](Cc1cn(C(c2ccccc2)(c2ccccc2)c2ccccc2)cn1)C(=O)N[C@H](C(=O)N[C@@H](CCC(=O)NC(c1ccccc1)(c1ccccc1)c1ccccc1)C(=O)N[C@@H](CCCNC(=N)NS(=O)(=O)c1c(C)c(C)c2c(c1C)CC(C)(C)O2)C(=O)N[C@H](C(=O)N[C@@H](CCSC)C(N)=O)C(C)C)C(C)C
ring closure, overall yield ([1]; 23-membered ring): 3%

Molecule: CC[C@H](C)[C@H](NC(=O)[C@H](Cc1c[nH]c2cc(Br)ccc12)NC(=O)[C@H](CCC(=O)OC(C)(C)C)NC(=O)[C@@H]1CCCN1C(=O)[C@H](CC(=O)NC(c1ccccc1)(c1ccccc1)c1ccccc1)NC(=O)[C@H](CCC(=O)OC(C)(C)C)NC(C)=O)C(=O)N[C@@H](CC(C)C)C(=O)N[C@@H](CC(=O)OC(C)(C)C)C(=O)N[C@@H](CCCCNC(=O)c1ccc(B(O)O)cc1)C(=O)N[C@@H](Cc1cn(C(c2ccccc2)(c2ccccc2)c2ccccc2)cn1)C(=O)N[C@H](C(=O)N[C@@H](CCC(=O)NC(c1ccccc1)(c1ccccc1)c1ccccc1)C(=O)N[C@@H](CCCNC(=N)NS(=O)(=O)c1c(C)c(C)c2c(c1C)CC(C)(C)O2)C(=O)N[C@H](C(=O)N[C@@H](CCSC)C(N)=O)C(C)C)C(C)C
ring closure, overall yield ([1]; 29-membered ring): 10%

Molecule: CC[C@H](C)[C@H](NC(=O)[C@H](Cc1c[nH]c2cc(Br)ccc12)NC(=O)[C@H](CCC(=O)OC(C)(C)C)NC(=O)[C@@H]1CCCN1C(=O)[C@H](CC(=O)NC(c1ccccc1)(c1ccccc1)c1ccccc1)NC(=O)[C@H](CCC(=O)OC(C)(C)C)NC(C)=O)C(=O)N[C@@H](CC(C)C)C(=O)N[C@@H](CC(=O)OC(C)(C)C)C(=O)N[C@@H](CCCNC(=O)c1ccc(B(O)O)cc1)C(=O)N[C@@H](Cc1cn(C(c2ccccc2)(c2ccccc2)c2ccccc2)cn1)C(=O)N[C@H](C(=O)N[C@@H](CCC(=O)NC(c1ccccc1)(c1ccccc1)c1ccccc1)C(=O)N[C@@H](CCCNC(=N)NS(=O)(=O)c1c(C)c(C)c2c(c1C)CC(C)(C)O2)C(=O)N[C@H](C(=O)N[C@@H](CCSC)C(N)=O)C(C)C)C(C)C
ring closure, overall yield ([1]; 28-membered ring): 8%

Molecule: CC[C@H](C)[C@H](NC(=O)[C@H](Cc1c[nH]c2cc(Br)ccc12)NC(=O)[C@H](CCC(=O)OC(C)(C)C)NC(=O)[C@@H]1CCCN1C(=O)[C@H](CC(=O)NC(c1ccccc1)(c1ccccc1)c1ccccc1)NC(=O)[C@H](CCC(=O)OC(C)(C)C)NC(C)=O)C(=O)N[C@@H](CC(C)C)C(=O)N[C@@H](CC(=O)OC(C)(C)C)C(=O)N[C@@H](CCNC(=O)c1ccc(B(O)O)cc1)C(=O)N[C@@H](Cc1cn(C(c2ccccc2)(c2ccccc2)c2ccccc2)cn1)C(=O)N[C@H](C(=O)N[C@@H](CCC(=O)NC(c1ccccc1)(c1ccccc1)c1ccccc1)C(=O)N[C@@H](CCCNC(=N)NS(=O)(=O)c1c(C)c(C)c2c(c1C)CC(C)(C)O2)C(=O)N[C@H](C(=O)N[C@@H](CCSC)C(N)=O)C(C)C)C(C)C
ring closure, overall yield ([1]; 27-membered ring): 8%

Molecule: CC[C@H](C)[C@H](NC(=O)[C@H](Cc1c[nH]c2cc(Br)ccc12)NC(=O)[C@H](CCC(=O)OC(C)(C)C)NC(=O)[C@@H]1CCCN1C(=O)[C@H](CC(=O)NC(c1ccccc1)(c1ccccc1)c1ccccc1)NC(=O)[C@H](CCC(=O)OC(C)(C)C)NC(C)=O)C(=O)N[C@@H](CC(C)C)C(=O)N[C@@H](CC(=O)OC(C)(C)C)C(=O)N[C@@H](Cc1ccc(B2OC(C)(C)C(C)(C)O2)cc1)C(=O)N[C@@H](Cc1cn(C(c2ccccc2)(c2ccccc2)c2ccccc2)cn1)C(=O)N[C@H](C(=O)N[C@@H](CCC(=O)NC(c1ccccc1)(c1ccccc1)c1ccccc1)C(=O)N[C@@H](CCCNC(=N)NS(=O)(=O)c1c(C)c(C)c2c(c1C)CC(C)(C)O2)C(=O)N[C@H](C(=O)N[C@@H](CCSC)C(N)=O)C(C)C)C(C)C
ring closure, overall yield ([1]; 24-membered ring): 4%

Molecule: Ac-ENPESILDEHVQRVM-NH2
MRE (deg cm2 dmol-1): -2860
θ222 [2]: -4.29 mdeg
[θ]222 (deg cm2 dmol-1) [3]: -42900

Molecule: Ac-ENPEWILDKHVQRVM-NH2
cleaved bond (Proteinase K): Leu-Asp; also recorded: Lys-His; also recorded: Gln-Arg

cleaved bond (Proteinase K): Gln-Arg
Molecule: Ac-Glu-Asn-Pro-Glu-Trp-Ile-Leu-Asp-Lys-His-Val-Gln-Arg-Val-Met-NH2 (Trp and Lys drawn as structures, side chains cross-linked by the 7-aryl-Trp staple)
not cleaved (Proteinase K): not hydrolysed after leucine within 120 min; also recorded: not hydrolysed after lysine within 120 min

Kd (β-catenin): 1190 nM
Molecule: PESILDEHVQRVLRT (also: FITC label, site not given here) [fAxWt (FITC-labelled axin CBD peptide) 467-481]
